Measurements reported in US20140221361A1, “C-19 MODIFIED TRITERPENOIDS WITH HIV MATURATION INHIBITORY ACTIVITY” (priority 2013, published 2014).

Test system: recombinant NL4-3 virus (Renilla luciferase in nef, Gag P373S)
Assay: HIV cell culture assay (luciferase reporter, MT-2 cells)
Format: cell-based, HIV-1
Conditions: Renilla, NL43, MT-2 cells infected for 4-5 days with NLRluc recombinants; luciferase activity; serial dilutions of inhibitor
Summary of the method: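 MT-2 cells infected with recombinant NL4-3 carrying Renilla luciferase in place of part of nef and Gag P373S, virus made by 293T transfection. Infection ran 4-5 days with serial inhibitor dilutions. Antiviral activity read as luciferase activity (Dual Luciferase reagents mixed with lysis buffer).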

CC1(C)C(c2ccc(C(=O)O)cc2)=CC[C@]2(C)[C@H]3CC[C@@H]4[C@H]5[C@H](NC(=O)c6ccc(C7(C(F)(F)F)N=N7)cc6)CC[C@]5(NCCN5CCS(=O)(=O)CC5)CC[C@@]4(C)[C@]3(C)CC[C@@H]12 [Example B45, 4-((1R,3aR,5aR,5bR,7aR,11aS,11bR,13aR,13bS)-3a-((2-(1,1-dioxidothiomorpholino)ethyl)amino)-5a,5b,8,8,11a-pentamethyl-1-(4-(3-(trifluoromethyl)-3H-diazirin-3-yl)benzamido)-2,3,3a,4,5,5a,5b,6,7,7a,8,11,11a,11b,12,13,13a,13b-octadecahydro-1H-cyclopenta[a]chrysen-9-yl)benzoic acid]
EC50: 50 nM

CC(=O)[C@@H]1CC[C@]2(N)CC[C@]3(C)[C@H](CC[C@@H]4[C@@]5(C)CC=C(c6ccc(C(=O)O)cc6)C(C)(C)[C@@H]5CC[C@]43C)[C@@H]12 [Example B46, 4-((1R,3aS,5aR,5bR,7aR,11aS,11bR,13aR,13bS)-1-acetyl-3a-amino-5a,5b,8,8,11a-pentamethyl-2,3,3a,4,5,5a,5b,6,7,7a,8,11,11a,11b,12,13,13a,13b-octadecahydro-1H-cyclopenta[a]chrysen-9-yl)benzoic acid]
EC50: 290 nM

CC(=O)[C@@H]1CC[C@]2(NCCN3CCS(=O)(=O)CC3)CC[C@]3(C)[C@H](CC[C@@H]4[C@@]5(C)CC=C(c6ccc(C(=O)O)cc6)C(C)(C)[C@@H]5CC[C@]43C)[C@@H]12 [Example B47, 4-((1R,3aS,5aR,5bR,7aR,11aS,11bR,13aR,13bS)-1-acetyl-3a-((2-(1,1-dioxidothiomorpholino)ethyl)amino)-5a,5b,8,8,11a-pentamethyl-2,3,3a,4,5,5a,5b,6,7,7a,8,11,11a,11b,12,13,13a,13b-octadecahydro-1H-cyclopenta[a]chrysen-9-yl)benzoic acid]
EC50: 10 nM

CC1([C@@H]2CC[C@]3(C(=O)O)CC[C@]4(C)[C@H](CC[C@@H]5[C@@]6(C)CC=C(c7ccc(C(=O)O)cc7)C(C)(C)[C@@H]6CC[C@]54C)[C@@H]23)CC1 [Example B48, (1R,3aS,5aR,5bR,7aR,11aS,11bR,13aR,13bR)-9-(4-carboxyphenyl)-5a,5b,8,8,11a-pentamethyl-1-(1-methylcyclopropyl)-2,3,3a,4,5,5a,5b,6,7,7a,8,11,11a,11b,12,13,13a,13b-octadecahydro-1H-cyclopenta[a]chrysene-3a-carboxylic acid]
EC50: 10 nM

CC1([C@@H]2CC[C@]3(N)CC[C@]4(C)[C@H](CC[C@@H]5[C@@]6(C)CC=C(c7ccc(C(=O)O)cc7)C(C)(C)[C@@H]6CC[C@]54C)[C@@H]23)CC1 [Example B49, 4-((1R,3aS,5aR,5bR,7aR,11aS,11bR,13aR,13bR)-3a-amino-5a,5b,8,8,11a-pentamethyl-1-(1-methylcyclopropyl)-2,3,3a,4,5,5a,5b,6,7,7a,8,11,11a,11b,12,13,13a,13b-octadecahydro-1H-cyclopenta[a]chrysen-9-yl)benzoic acid]
EC50: 0.985 nM

CN[C@]12CC[C@@H](C3(C)CC3)[C@@H]1[C@H]1CC[C@@H]3[C@@]4(C)CC=C(c5ccc(C(=O)O)cc5)C(C)(C)[C@@H]4CC[C@@]3(C)[C@]1(C)CC2 [Example B50, 4-((1R,3aS,5aR,5bR,7aR,11aS,11bR,13aR,13bR)-5a,5b,8,8,11a-pentamethyl-3a-(methylamino)-1-(1-methylcyclopropyl)-2,3,3a,4,5,5a,5b,6,7,7a,8,11,11a,11b,12,13,13a,13b-octadecahydro-1H-cyclopenta[a]chrysen-9-yl)benzoic acid]
EC50: 1.36 nM

CC1([C@@H]2CC[C@]3(NC(=O)CN4CCS(=O)(=O)CC4)CC[C@]4(C)[C@H](CC[C@@H]5[C@@]6(C)CC=C(c7ccc(C(=O)O)cc7)C(C)(C)[C@@H]6CC[C@]54C)[C@@H]23)CC1 [Example B51, 4-((1R,3aS,5aR,5bR,7aR,11aS,11bR,13aR,13bR)-3a-(2-(1,1-dioxidothiomorpholino)acetamido)-5a,5b,8,8,11a-pentamethyl-1-(1-methylcyclopropyl)-2,3,3a,4,5,5a,5b,6,7,7a,8,11,11a,11b,12,13,13a,13b-octadecahydro-1H-cyclopenta[a]chrysen-9-yl)benzoic acid]
EC50: 1.1 nM

CC1([C@@H]2CC[C@]3(NCCN4CCS(=O)(=O)CC4)CC[C@]4(C)[C@H](CC[C@@H]5[C@@]6(C)CC=C(c7ccc(C(=O)O)cc7)C(C)(C)[C@@H]6CC[C@]54C)[C@@H]23)CC1 [Example B52, 4-((1R,3aS,5aR,5bR,7aR,11aS,11bR,13aR,13bR)-3a-((2-(1,1-dioxidothiomorpholino)ethyl)amino)-5a,5b,8,8,11a-pentamethyl-1-(1-methylcyclopropyl)-2,3,3a,4,5,5a,5b,6,7,7a,8,11,11a,11b,12,13,13a,13b-octadecahydro-1H-cyclopenta[a]chrysen-9-yl)benzoic acid]
EC50: 0.924 nM

CC1([C@@H]2CC[C@]3(NCCN4CCC(S(C)(=O)=O)CC4)CC[C@]4(C)[C@H](CC[C@@H]5[C@@]6(C)CC=C(c7ccc(C(=O)O)cc7)C(C)(C)[C@@H]6CC[C@]54C)[C@@H]23)CC1 [Example B53, 4-((1R,3aS,5aR,5bR,7aR,11aS,11bR,13aR,13bR)-5a,5b,8,8,11a-pentamethyl-1-(1-methylcyclopropyl)-3a-(2-(4-(methylsulfonyl)piperidin-1-yl)ethylamino)-2,3,3a,4,5,5a,5b,6,7,7a,8,11,11a,11b,12,13,13a,13b-octadecahydro-1H-cyclopenta[a]chrysen-9-yl)benzoic acid]
EC50: 1.03 nM

CC1([C@@H]2CC[C@]3(N)CC[C@]4(C)[C@H](CC[C@@H]5[C@@]6(C)CC[C@H](c7ccc(C(=O)O)cc7)C(C)(C)[C@@H]6CC[C@]54C)[C@@H]23)CC1 [Example B54, 4-((1R,3aS,5aR,5bR,7aS,9S,11aS,11bR,13aR,13bR)-3a-amino-5a,5b,8,8,11a-pentamethyl-1-(1-methylcyclopropyl)icosahydro-1H-cyclopenta[a]chrysen-9-yl)benzoic acid]
EC50: 0.577 nM

CN[C@]12CC[C@@H](C3(C)CC3)[C@@H]1[C@H]1CC[C@@H]3[C@@]4(C)CC[C@H](c5ccc(C(=O)O)cc5)C(C)(C)[C@@H]4CC[C@@]3(C)[C@]1(C)CC2 [Example B55]
EC50: 1.51 nM

CC1([C@@H]2CC[C@]3(NCCN4CCN(S(C)(=O)=O)CC4)CC[C@]4(C)[C@H](CC[C@@H]5[C@@]6(C)CC=C(c7ccc(C(=O)O)cc7)C(C)(C)[C@@H]6CC[C@]54C)[C@@H]23)CC1 [Example B56, 4-((1R,3aS,5aR,5bR,7aR,11aS,11bR,13aR,13bR)-5a,5b,8,8,11a-pentamethyl-1-(1-methylcyclopropyl)-3a-(2-(4-(methylsulfonyl)piperazin-1-yl)ethylamino)-2,3,3a,4,5,5a,5b,6,7,7a,8,11,11a,11b,12,13,13a,13b-octadecahydro-1H-cyclopenta[a]chrysen-9-yl)benzoic acid]
EC50: 2.51 nM
